No end group written: not given here.

The values that follow come from PMC5406018, “TCR stimulation strength is inversely associated with establishment of functional brain-resident memory CD8 T cells during persistent viral infection” (PLoS Pathogens, 2017).

The target of this assay is T1, MHC-I D^b (Mus musculus, UniProt P01899).
T1 construct: endogenous in cells; host or cells: RMA/S cells
T1 sequence (P01899 25-362): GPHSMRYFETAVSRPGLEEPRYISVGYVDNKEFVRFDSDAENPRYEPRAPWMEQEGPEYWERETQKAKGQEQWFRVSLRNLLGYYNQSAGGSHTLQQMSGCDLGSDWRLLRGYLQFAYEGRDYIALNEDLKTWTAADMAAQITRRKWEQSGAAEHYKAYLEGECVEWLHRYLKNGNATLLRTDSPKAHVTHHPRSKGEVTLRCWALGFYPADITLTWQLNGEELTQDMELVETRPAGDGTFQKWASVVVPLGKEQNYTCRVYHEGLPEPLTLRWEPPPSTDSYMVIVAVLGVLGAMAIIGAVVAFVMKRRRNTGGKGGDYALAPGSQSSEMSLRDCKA
T1 sequence (P01887 21-119 partner): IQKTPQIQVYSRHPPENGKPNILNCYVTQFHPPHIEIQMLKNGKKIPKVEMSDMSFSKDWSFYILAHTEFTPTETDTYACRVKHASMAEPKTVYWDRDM
Description: RMA/S MHC-I stabilization assay. As to conditions: RMA/S cells cultured overnight at 26°C, peptide 1 h at RT then 2 h at 37°C; anti-D^b gMFI, percent of maximum; unit inferred; read-out: MHC-I D^b EC50 (MHC-I binding and stabilization). The method, then: Fig 1 Characterizing the T cell response to analogues of a subdominant CD8 T cell epitope. (A) RMA/S cells were cultured overnight at 26°C. Cells were incubated with the indicated dose of peptide for 1 h at RT followed by incubation at 37C for 2 h. […] (B) RMA/S cells were cultured overnight at […] in 100 μM of peptide. Cells were then resuspended in fresh media, incubated at 37C, and sampled hourly for 4 h. […] Nuclear Nur77 (C) and intracellular IFNγ expression (D) shown. […] All data plotted as percent of maximal expression ± SD. […]
For MHC-I stabilization assays, RMA/S cells were cultured overnight at 26°C, resuspended in RPMI containing 10% FBS (10% RPMI) and peptides of different concentrations, then incubated for 1 h at room temperature followed by 2 h at 37°C. […] Each hour for 4 h an aliquot of cells was stained for 30 mins at 4°C with phycoerythrin-conjugated anti-D^b (clone 28-14-8; eBioscience), acquired on a BD FACSCanto10 instrument, and the geometric mean fluorescence intensity (gMFI) determined using FlowJo Software (Tree Star). The percent maximum gMFI was calculated as (gMFI^peptide-gMFI^no peptide)/(gMFI^max- gMFI^no peptide) x 100. EC50 and T1/2 were calculated using Prism software (GraphPad, La Jolla CA).

QGINNLDNL [TagV]: the half-maximal effective concentration (EC50) (usually the concentration needed to bring the measured effect to its halfway point) turned out to be 175 nM.

For MGVANLDNL [LT638], the EC50 worked out at 259 nM.
